± gives the expanded uncertainty stated by the source.
Settings: Liquid, Concentric cylinders viscometry

viscosity (298.15 K, 10000 kPa) [mPa·s]	viscosity (298.15 K, 50000 kPa) [mPa·s]	viscosity (298.15 K, 75000 kPa) [mPa·s]	viscosity (313.15 K, 10000 kPa) [mPa·s]	viscosity (313.15 K, 50000 kPa) [mPa·s]	viscosity (313.15 K, 75000 kPa) [mPa·s]	viscosity (323.15 K, 10000 kPa) [mPa·s]	viscosity (323.15 K, 50000 kPa) [mPa·s]	viscosity (323.15 K, 75000 kPa) [mPa·s]	viscosity (333.15 K, 10000 kPa) [mPa·s]	viscosity (333.15 K, 50000 kPa) [mPa·s]	viscosity (333.15 K, 75000 kPa) [mPa·s]	viscosity (343.15 K, 10000 kPa) [mPa·s]	viscosity (343.15 K, 50000 kPa) [mPa·s]	viscosity (343.15 K, 75000 kPa) [mPa·s]	viscosity (353.15 K, 10000 kPa) [mPa·s]	viscosity (353.15 K, 50000 kPa) [mPa·s]	viscosity (353.15 K, 75000 kPa) [mPa·s]	SMILES
354 ± 27	571 ± 45	737 ± 59	154 ± 12	238 ± 19	304 ± 25	94 ± 7	142 ± 11	186 ± 14	63.8 ± 4.6	94.8 ± 6.9	120 ± 9	44.5 ± 3.2	65.9 ± 4.8	82.1 ± 6	31.4 ± 2.3	46 ± 3.4	56.9 ± 4.2	CCCCCCOS(=O)(=O)[O-].CC[n+]1ccn(C)c1 [3-ethyl-1-methyl-1H-imidazolium hexyl sulfate]
413 ± 32	913 ± 75	1417 ± 120	189 ± 15	401 ± 33	615 ± 52	114 ± 9	223 ± 17	364 ± 29	78.1 ± 5.7	159 ± 12	232 ± 18	53.5 ± 3.9	112 ± 8	162 ± 12	37.9 ± 2.8	76.3 ± 5.6	109 ± 8	CCCCCCCCCCCCCC[P+](CCCCCC)(CCCCCC)CCCCCC.FC(F)(F)C(F)(F)[P-](F)(F)(F)(C(F)(F)C(F)(F)F)C(F)(F)C(F)(F)F

From the NIST ThermoML archive (doi:10.1021/acs.jced.7b00181)
